One test concerns 429239-143-T-J1-PDC complex spheroid viability. Put plainly: Anticancer human tumor 429239-143-T-J1-PDC patient-derived small cell lung carcinoma cell line growth inhibition [POLQ]. As to conditions: second compound 1 µM; first compound 0.316 µM; active compounds read low. The method in brief: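 Patient-derived tumour cells were co-cultured with HUVEC and mesenchymal stem cells as multicellular spheroids at 37 °C. They were treated with POLQ inhibitors (novobiocin, ART-558, RP6685) alone or combined with other agents. Top concentrations were at or near clinical Cmax (otherwise 10 microM; SN-38 at 1 microM), decreasing in half-log steps.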
`CC1COCCN1c1cc(-c2ccnn2C)c2ccnc(-c3ccn[nH]3)c2n1` (stereo unspecified) + Cc1cccc(N(C)C(=O)C2C(O)CCN2c2nc(C)cc(C(F)(F)F)c2C#N)c1: the viability, T/C (in general, the result in the treated group divided by that in the control group, in per cent) was 28.4%.

With `COc1cc2cc(C(=O)CCC(=O)O)sc2cc1OC` + Cc1cccc(N(C)C(=O)C2C(O)CCN2c2nc(C)cc(C(F)(F)F)c2C#N)c1, the viability, T/C is 94.1%.

For the compound `CC1COCCN1c1cc(-c2ccnn2C)c2ccnc(-c3ccn[nH]3)c2n1` (stereo unspecified) + Nc1ccc(C#CCN(C(=O)Cc2ncc(C(F)(F)F)cc2C(F)(F)F)c2ccc(F)cc2)nn1, the viability, T/C is 56.1%.

As to `COc1cccc2c1C(=O)c1c(O)c3c(c(O)c1C2=O)CC(O)(C(=O)CO)CC3OC1CC(N)C(O)C(C)O1` (stereo unspecified) + Nc1ccc(C#CCN(C(=O)Cc2ncc(C(F)(F)F)cc2C(F)(F)F)c2ccc(F)cc2)nn1, the viability, T/C is 5.31%.

Staying with this test, now noted: second compound 1 µM; first compound 1 µM; active compounds read low.
For the compound `C#Cc1c(F)ccc2cc(O)cc(-c3ncc4c(N5CC6CCC(C5)N6)nc(OCC56CCCN5CC(F)C6)nc4c3F)c12` (stereo unspecified) + Cc1cccc(N(C)C(=O)C2C(O)CCN2c2nc(C)cc(C(F)(F)F)c2C#N)c1, the viability, T/C was 92.5%.

With `CC1COCCN1c1cc(-c2ccnn2C)c2ccnc(-c3ccn[nH]3)c2n1` (stereo unspecified) + Cc1cccc(N(C)C(=O)C2C(O)CCN2c2nc(C)cc(C(F)(F)F)c2C#N)c1, the viability, T/C was 13.8%.

`COc1cc2cc(C(=O)CCC(=O)O)sc2cc1OC` + Cc1cccc(N(C)C(=O)C2C(O)CCN2c2nc(C)cc(C(F)(F)F)c2C#N)c1: the viability, T/C was 115%.

On to `CC1COCCN1c1cc(-c2ccnn2C)c2ccnc(-c3ccn[nH]3)c2n1` (stereo unspecified) + Nc1ccc(C#CCN(C(=O)Cc2ncc(C(F)(F)F)cc2C(F)(F)F)c2ccc(F)cc2)nn1, for which the viability, T/C was 26.2%.

Take `COc1cccc2c1C(=O)c1c(O)c3c(c(O)c1C2=O)CC(O)(C(=O)CO)CC3OC1CC(N)C(O)C(C)O1` (stereo unspecified) + Nc1ccc(C#CCN(C(=O)Cc2ncc(C(F)(F)F)cc2C(F)(F)F)c2ccc(F)cc2)nn1: the viability, T/C was 0.69%.

Still in this test, the particulars now being: second compound 1 µM; first compound 3.16 µM; active compounds read low.
With `C#Cc1c(F)ccc2cc(O)cc(-c3ncc4c(N5CC6CCC(C5)N6)nc(OCC56CCCN5CC(F)C6)nc4c3F)c12` (stereo unspecified) + Cc1cccc(N(C)C(=O)C2C(O)CCN2c2nc(C)cc(C(F)(F)F)c2C#N)c1, the viability, T/C is 89.9%.

Take `CC1COCCN1c1cc(-c2ccnn2C)c2ccnc(-c3ccn[nH]3)c2n1` (stereo unspecified) + Cc1cccc(N(C)C(=O)C2C(O)CCN2c2nc(C)cc(C(F)(F)F)c2C#N)c1: the viability, T/C was 11.9%.

As for `COc1cc2cc(C(=O)CCC(=O)O)sc2cc1OC` + Cc1cccc(N(C)C(=O)C2C(O)CCN2c2nc(C)cc(C(F)(F)F)c2C#N)c1, the viability, T/C is 117%.

In the case of `CC1COCCN1c1cc(-c2ccnn2C)c2ccnc(-c3ccn[nH]3)c2n1` (stereo unspecified) + Nc1ccc(C#CCN(C(=O)Cc2ncc(C(F)(F)F)cc2C(F)(F)F)c2ccc(F)cc2)nn1, the viability, T/C is 5.38%.

Consider `COc1cccc2c1C(=O)c1c(O)c3c(c(O)c1C2=O)CC(O)(C(=O)CO)CC3OC1CC(N)C(O)C(C)O1` (stereo unspecified) + Nc1ccc(C#CCN(C(=O)Cc2ncc(C(F)(F)F)cc2C(F)(F)F)c2ccc(F)cc2)nn1, for which the viability, T/C is 0.1%.

Staying with this test, now noted: second compound 1 µM; first compound 10 µM; active compounds read low.
`C#Cc1c(F)ccc2cc(O)cc(-c3ncc4c(N5CC6CCC(C5)N6)nc(OCC56CCCN5CC(F)C6)nc4c3F)c12` (stereo unspecified) + Cc1cccc(N(C)C(=O)C2C(O)CCN2c2nc(C)cc(C(F)(F)F)c2C#N)c1: the viability, T/C is 92.5%.

For `CC1COCCN1c1cc(-c2ccnn2C)c2ccnc(-c3ccn[nH]3)c2n1` (stereo unspecified) + Cc1cccc(N(C)C(=O)C2C(O)CCN2c2nc(C)cc(C(F)(F)F)c2C#N)c1, the viability, T/C is 9.85%.

Turning to `COc1cc2cc(C(=O)CCC(=O)O)sc2cc1OC` + Cc1cccc(N(C)C(=O)C2C(O)CCN2c2nc(C)cc(C(F)(F)F)c2C#N)c1, the viability, T/C was 91.2%.

With `CC1COCCN1c1cc(-c2ccnn2C)c2ccnc(-c3ccn[nH]3)c2n1` (stereo unspecified) + Nc1ccc(C#CCN(C(=O)Cc2ncc(C(F)(F)F)cc2C(F)(F)F)c2ccc(F)cc2)nn1, the viability, T/C was 4.35%.

Turning to `COc1cccc2c1C(=O)c1c(O)c3c(c(O)c1C2=O)CC(O)(C(=O)CO)CC3OC1CC(N)C(O)C(C)O1` (stereo unspecified) + Nc1ccc(C#CCN(C(=O)Cc2ncc(C(F)(F)F)cc2C(F)(F)F)c2ccc(F)cc2)nn1, the viability, T/C is 0.83%.

Still in this test, the particulars now being: second compound 3.16 µM; first compound 0.0316 µM; active compounds read low.
Turning to `C#Cc1c(F)ccc2cc(O)cc(-c3ncc4c(N5CC6CCC(C5)N6)nc(OCC56CCCN5CC(F)C6)nc4c3F)c12` (stereo unspecified) + Cc1cccc(N(C)C(=O)C2C(O)CCN2c2nc(C)cc(C(F)(F)F)c2C#N)c1, the viability, T/C was 90.2%.

With `CC1COCCN1c1cc(-c2ccnn2C)c2ccnc(-c3ccn[nH]3)c2n1` (stereo unspecified) + Cc1cccc(N(C)C(=O)C2C(O)CCN2c2nc(C)cc(C(F)(F)F)c2C#N)c1, the viability, T/C was 77.9%.

For the compound `COc1cc2cc(C(=O)CCC(=O)O)sc2cc1OC` + Cc1cccc(N(C)C(=O)C2C(O)CCN2c2nc(C)cc(C(F)(F)F)c2C#N)c1, the viability, T/C was 108%.

Consider `CC1COCCN1c1cc(-c2ccnn2C)c2ccnc(-c3ccn[nH]3)c2n1` (stereo unspecified) + Nc1ccc(C#CCN(C(=O)Cc2ncc(C(F)(F)F)cc2C(F)(F)F)c2ccc(F)cc2)nn1, for which the viability, T/C was 87.9%.

On to `COc1cccc2c1C(=O)c1c(O)c3c(c(O)c1C2=O)CC(O)(C(=O)CO)CC3OC1CC(N)C(O)C(C)O1` (stereo unspecified) + Nc1ccc(C#CCN(C(=O)Cc2ncc(C(F)(F)F)cc2C(F)(F)F)c2ccc(F)cc2)nn1, for which the viability, T/C was 83.9%.

Still in this test, the particulars now being: second compound 3.16 µM; first compound 0.1 µM; active compounds read low.
For `C#Cc1c(F)ccc2cc(O)cc(-c3ncc4c(N5CC6CCC(C5)N6)nc(OCC56CCCN5CC(F)C6)nc4c3F)c12` (stereo unspecified) + Cc1cccc(N(C)C(=O)C2C(O)CCN2c2nc(C)cc(C(F)(F)F)c2C#N)c1, the viability, T/C is 88.4%.

For `CC1COCCN1c1cc(-c2ccnn2C)c2ccnc(-c3ccn[nH]3)c2n1` (stereo unspecified) + Cc1cccc(N(C)C(=O)C2C(O)CCN2c2nc(C)cc(C(F)(F)F)c2C#N)c1, the viability, T/C is 44.1%.

The values are drawn from PubChem BioAssay AID1963845 (Molecular Pharmacology Branch, DTP, NCI, 2024).
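Also: luminescence signal used as surrogate measure of viable cells; spheroids exposed to compounds for seven days before readout; 100% = DMSO vehicle control viability as luminescence relative to vehicle.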
